# Measurements from the supplement of paper PMC10307832.
# Key:
# Experiment in all cases: relative viability (nuclei count vs DMSO), 5 days (fraction); higher = more cells survive
# 201T = system: 201T
# In short: (§1)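 The day after seeding in 1536-well plates, lung cancer cell lines were treated by pin tool with a single drug, or with a fixed anchor-drug dose together with five library-drug doses (not always all listed) in √10 steps. After 5 days, a combined fix-and-stain solution (final 0.05% Triton X-100, 1% formaldehyde, 1 ug/ml Hoechst) was added. Nuclei counted on 4× images gave relative viability as treated counts over vehicle counts, reported as the median of duplicate plates.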
# BEN = system: BEN
# In short: as §1
# COR-L 105 = system: COR-L 105
# In short: as §1
# EKVX = system: EKVX
# In short: as §1
# EPLC-272H = system: EPLC-272H
# In short: as §1
# H3255 = system: H3255
# In short: as §1
# HCC-44 = system: HCC-44
# In short: as §1
# HCC-827 = system: HCC-827
# In short: as §1
# LCLC-97TM1 = system: LCLC-97TM1
# In short: as §1
# LOU-NH91 = system: LOU-NH91
# In short: as §1
# LU99A = system: LU99A
# In short: as §1
# NCI-H1437 = system: NCI-H1437
# In short: as §1
# NCI-H1666 = system: NCI-H1666
# In short: as §1
# NCI-H1975 = system: NCI-H1975
# In short: as §1
# NCI-H2085 = system: NCI-H2085
# In short: as §1
# NCI-H2087 = system: NCI-H2087
# In short: as §1
# NCI-H647 = system: NCI-H647
# In short: as §1
# NCI-H650 = system: NCI-H650
# In short: as §1
# PC-3 [JPC-3] = system: PC-3 [JPC-3]
# In short: as §1
# SW 1573 = system: SW 1573
# In short: as §1
smiles,measurement,setting,value
CC(=O)O[C@@]12CO[C@@H]1C[C@H](O)[C@@]1(C)C(=O)[C@H](O)C3=C(C)[C@@H](OC(=O)[C@H](O)[C@@H](NC(=O)OC(C)(C)C)c4ccccc4)C[C@@](O)([C@@H](OC(=O)c4ccccc4)[C@H]21)C3(C)C [Docetaxel] + C[C@]1(O)C[C@@H](c2nc(-c3ccc4ccc(-c5ccccc5)nc4c3)c3c(N)nccn32)C1 [Linsitinib] (partner 1 µM),relative viability,201T; first compound 0.0002 µM,1.04
same,relative viability,201T; first compound 0.000632 µM,1.07
same,relative viability,201T; first compound 0.002 µM,0.944
same,relative viability,201T; first compound 0.006325 µM,0.48
same,relative viability,201T; first compound 0.02 µM,0.284
same,relative viability,BEN; first compound 0.0002 µM,0.827
same,relative viability,BEN; first compound 0.000632 µM,0.812
same,relative viability,BEN; first compound 0.002 µM,0.473
same,relative viability,BEN; first compound 0.006325 µM,0.246
same,relative viability,BEN; first compound 0.02 µM,0.189
same,relative viability,COR-L 105; first compound 0.0002 µM,0.899
same,relative viability,COR-L 105; first compound 0.000632 µM,0.757
same,relative viability,COR-L 105; first compound 0.002 µM,0.395
same,relative viability,COR-L 105; first compound 0.006325 µM,0.362
same,relative viability,COR-L 105; first compound 0.02 µM,0.288
same,relative viability,EKVX; first compound 0.0002 µM,0.899
same,relative viability,EKVX; first compound 0.000632 µM,0.804
same,relative viability,EKVX; first compound 0.002 µM,0.427
same,relative viability,EKVX; first compound 0.006325 µM,0.23
same,relative viability,EKVX; first compound 0.02 µM,0.115
same,relative viability,EPLC-272H; first compound 0.0002 µM,1.08
same,relative viability,EPLC-272H; first compound 0.000632 µM,0.954
same,relative viability,EPLC-272H; first compound 0.002 µM,0.54
same,relative viability,EPLC-272H; first compound 0.006325 µM,0.126
same,relative viability,EPLC-272H; first compound 0.02 µM,0.0815
same,relative viability,H3255; first compound 0.0002 µM,0.824
same,relative viability,H3255; first compound 0.000632 µM,0.866
same,relative viability,H3255; first compound 0.002 µM,0.516
same,relative viability,H3255; first compound 0.006325 µM,0.223
same,relative viability,H3255; first compound 0.02 µM,0.209
same,relative viability,HCC-44; first compound 0.0002 µM,0.608
same,relative viability,HCC-44; first compound 0.000632 µM,0.747
same,relative viability,HCC-44; first compound 0.002 µM,0.589
same,relative viability,HCC-44; first compound 0.006325 µM,0.201
same,relative viability,HCC-44; first compound 0.02 µM,0.106
same,relative viability,HCC-827; first compound 0.0002 µM,0.971
same,relative viability,HCC-827; first compound 0.000632 µM,0.927
same,relative viability,HCC-827; first compound 0.002 µM,0.892
same,relative viability,HCC-827; first compound 0.006325 µM,0.438
same,relative viability,HCC-827; first compound 0.02 µM,0.347
same,relative viability,LCLC-97TM1; first compound 0.000632 µM,0.153
same,relative viability,LCLC-97TM1; first compound 0.002 µM,0.155
same,relative viability,LCLC-97TM1; first compound 0.006325 µM,0.144
same,relative viability,LCLC-97TM1; first compound 0.02 µM,0.112
same,relative viability,LOU-NH91; first compound 0.0002 µM,0.967
same,relative viability,LOU-NH91; first compound 0.000632 µM,0.8
same,relative viability,LOU-NH91; first compound 0.002 µM,0.586
same,relative viability,LOU-NH91; first compound 0.006325 µM,0.434
same,relative viability,LOU-NH91; first compound 0.02 µM,0.324
same,relative viability,LU99A; first compound 0.0002 µM,0.52
same,relative viability,LU99A; first compound 0.000632 µM,0.458
same,relative viability,LU99A; first compound 0.002 µM,0.356
same,relative viability,LU99A; first compound 0.006325 µM,0.262
same,relative viability,LU99A; first compound 0.02 µM,0.169
same,relative viability,NCI-H1437; first compound 0.0002 µM,0.964
same,relative viability,NCI-H1437; first compound 0.000632 µM,0.805
same,relative viability,NCI-H1437; first compound 0.006325 µM,0.124
same,relative viability,NCI-H1437; first compound 0.02 µM,0.0906
same,relative viability,NCI-H1666; first compound 0.0002 µM,0.712
same,relative viability,NCI-H1666; first compound 0.000632 µM,0.404
same,relative viability,NCI-H1666; first compound 0.002 µM,0.383
same,relative viability,NCI-H1666; first compound 0.006325 µM,0.28
same,relative viability,NCI-H1666; first compound 0.02 µM,0.211
same,relative viability,NCI-H1975; first compound 0.0002 µM,0.861
same,relative viability,NCI-H1975; first compound 0.000632 µM,0.962
same,relative viability,NCI-H1975; first compound 0.002 µM,0.309
same,relative viability,NCI-H1975; first compound 0.006325 µM,0.189
same,relative viability,NCI-H1975; first compound 0.02 µM,0.161
same,relative viability,NCI-H2085; first compound 0.0002 µM,0.868
same,relative viability,NCI-H2085; first compound 0.000632 µM,0.888
same,relative viability,NCI-H2085; first compound 0.002 µM,0.652
same,relative viability,NCI-H2085; first compound 0.006325 µM,0.576
same,relative viability,NCI-H2085; first compound 0.02 µM,0.276
same,relative viability,NCI-H2087; first compound 0.0002 µM,0.848
same,relative viability,NCI-H2087; first compound 0.000632 µM,0.68
same,relative viability,NCI-H2087; first compound 0.002 µM,0.301
same,relative viability,NCI-H2087; first compound 0.006325 µM,0.326
same,relative viability,NCI-H2087; first compound 0.02 µM,0.156
same,relative viability,NCI-H647; first compound 0.0002 µM,0.966
same,relative viability,NCI-H647; first compound 0.000632 µM,0.623
same,relative viability,NCI-H647; first compound 0.002 µM,0.123
same,relative viability,NCI-H647; first compound 0.006325 µM,0.102
same,relative viability,NCI-H647; first compound 0.02 µM,0.082
same,relative viability,NCI-H650; first compound 0.0002 µM,0.657
same,relative viability,NCI-H650; first compound 0.000632 µM,0.341
same,relative viability,NCI-H650; first compound 0.002 µM,0.312
same,relative viability,NCI-H650; first compound 0.006325 µM,0.255
same,relative viability,NCI-H650; first compound 0.02 µM,0.152
same,relative viability,PC-3 [JPC-3]; first compound 0.0002 µM,0.983
same,relative viability,PC-3 [JPC-3]; first compound 0.000632 µM,0.96
same,relative viability,PC-3 [JPC-3]; first compound 0.002 µM,0.863
same,relative viability,PC-3 [JPC-3]; first compound 0.006325 µM,0.37
same,relative viability,PC-3 [JPC-3]; first compound 0.02 µM,0.184
same,relative viability,SW 1573; first compound 0.0002 µM,0.804
same,relative viability,SW 1573; first compound 0.000632 µM,0.594
same,relative viability,SW 1573; first compound 0.002 µM,0.279
same,relative viability,SW 1573; first compound 0.006325 µM,0.276
same,relative viability,SW 1573; first compound 0.02 µM,0.178
